According to patent US8618074B2, “GPCR enhanced neuroprotection to treat brain injury” (Board of Regents of the University of Texas System, priority 2007, dated 2013):

Assays:
[1] = tested on: HEK293 cells that were overexpressing type 1 muscarinic acetylcholine receptors (mAchR1s); assay: Cell death induced by t-BuOOH or ceramide with IP3-gated Ca2+ release stimulation; assay type: cell-based, human; conditions: ACh 1 μM; t-BuOOH (100 μM, 3 hrs) or ceramide (40 μM, 12 hrs)
Excerpt: P2 purinoceptors are a class of cell surface receptors, subdivided into either the ligand-gated ionotropic receptors (P2X) or G-protein-coupled metabotropic receptors (P2Y)). We focused our work on the P2Y-Rs due to their strong coupling to Gq/11 signaling pathway in astrocytes. Activation of P2Y-receptors stimulates PLCB isoenzymes, increasing inositol triphosphate (IP3) formation and subsequent Ca^2+ mobilization from thapsigargin sensitive stores in the endoplasmic reticulum (ER). Thapsigargin is a specific inhibitor of the sarco-endoplasmic reticulum Ca^2+ ATPases (SERCAs). As mentioned above, IP3-mediated Ca^2+ release is efficiently sequestered by mitochondria, due to its physically close proximity the Ca^2+ channel pore. Increased mitochondrial Ca^2+ uptake via the Ca^2+ uniporter rapidly stimulates Ca^2+ sensitive dehydrogenases and subsequently, increases respiration and ATP production. […] Another important point to make with regard to mitochondrial Ca^2+ signaling is that high matrix Ca^2+ is generally thought to sensitize cells to cell death stimuli. During prolonged periods or with sufficiently high concentrations, matrix Ca^2+ induces opening of the mitochondrial permeability transition pore (MPT). Recent work has identified the mitochondrial targeted cyclophilin D as a key player in Ca^2+ stimulated cell death. […]

[2] = tested on: astrocytes; assay: Time until mitochondrial membrane potential (ΔΨ, TMRE) collapse during t-BuOOH oxidative stress; assay type: cell-based, mouse; conditions: for time until ΔΨ collapse: then t-BuOOH; for average time until ΔΨ collapse: XeC 25 μM pretreatment + ATP 10 μM, then t-BuOOH 100 μM
Description: Primary cultures of astrocytes were prepared as previously published (Lin et al., 2005). C57BL/6 male mice were purchased from the National Institute of Aging and maintained in standard accredited housing conditions at the University of Texas Health Science Center Animal Facility. Animal protocols were approved by our Institutional Animal Care Use Committee. Astrocytes were cultured in DMEM F-12 media (Invitrogen, # 11039-021) supplemented with 2 mM glutamine, nonessential amino acids, 10% fetal calf serum, 100 U/ml penicillin/streptomycin (Cambrex BioScience Walkersville, #17-602E) and 1% fungizone (Invitrogen, #15290-018) at 37° C. in an atmosphere containing 5% CO2. The culture medium was changed every 3-5 days. Confluent cells were gently removed by a trypsin EDTA solution and re-plated on 35 mm glass bottom chambers (Bioptechs #04200415C) prior to imaging experiments 3-4 days later. Cells were maintained in plastic culture flasks until the final re-seeding of cells onto a glass bottom chamber and were passed up to 3 times for astrocyte only experiments. For co-culture experiments with neurons, primary astrocytes were plated directly onto corning transwell-clear permeable supports, which physically separates the two cell-types by ˜1 mm (# 07-200-170, Fisher scientific). Astrocytes were cultured in transwells until they were ˜70% confluent. Mouse cortical neurons (Cambrex Bio Science Walkersville Inc., # M-CX-300) were then cultured onto 6 well mat-tek glass bottom plates and maintained in Neurobasal Medium (Invitrogen, # 21103-049), 2 mM L-Glutamine (Cambrex BioScience Walkersville, #17-605E), 100 U/ml penicillin/streptomycin (Cambrex BioScience Walkersville, #17-602E) and B-27 with (Invitrogen, #17504-044) and without antioxidants (Invitrogen, #10889-038), which controls glia contamination to less than 0.5%. The transwell supports with cultured astrocytes were placed in the neuron seeded glass bottom chambers for four days before imaging and both cell types were then maintained in neuronal media. For neuron only experiments, the astrocytes on the transwell supports were removed prior to treatments and imaging.
(§1) Mitochondrial membrane potentials (ΔΨs) was measured as previously described using the potential sensitive dye tetra-methyl rhodamine ethyl ester (TMRE, Molecular Probes, #T-669) (Lin and Lechleiter, 2002). Images were acquired with a 60× oil 1.4 NA objective on a Nikon PCM2000 confocal microscope custom adapted for two-photon imaging. A Ti-sapphire Coherent Mira 900 Laser pumped with a 5W Verdi laser (Coherent Inc., Santa Clara, Calif.) was used to excite TMRE at 800 nm A neutral-density filter wheel was used to attenuate the laser intensity so that no detectable photobleaching of TMRE was observed.
To investigate this, primary cultures of astrocytes were prepared from the brains of young (4-6 months) and old (26-28 months) mice and re-plated on glass coverslips prior to each imaging experiment as previously described. Seeded glass coverslips were then sealed in an open chamber (Bioptechs Delta T) and perfused at 37° C. with the potential sensitive dye tetramethyl rhodamine ethyl ester (TMRE, 200 nM, Molecular Probes/Invitrogen) to label astrocyte mitochondria. Mitochondrial membrane potentials (ΔΨs) were measured every 5 minutes using two-photon microscopy. Each image is a maximum intensity projection of a z-stack of six optical sections (1-μm steps). Scale bar is 10 μm. Plated cells were continuously perfused at 37° C. with culture medium containing TMRE (200 nM) and imaged with 2-photon microscopy (800 nm). Oxidative stress was applied to the cells in the perfusate with t-BuOOH (100 μM). Cell viability was then monitored by the collapse of ΔΨ (TMRE fluorescence) to 10% of its initial value. The time course of ΔΨ collapse is plotted for 3 astrocytes (A1, A2, A3) in each culture (FIGS. 1B and 2B). Fluorescent units are scaled to 100% at 0 hours. […]

[3] = tested on: astrocytes; assay: Fura-2 two-photon imaging of intracellular Ca2+ response; assay type: cell-based, mouse; conditions: for Ca2+ response: then IP3-BM
Description: Ca^2+ activity was imaged as previously described (Camacho and Lechleiter, 1995). In brief, cultured astrocytes were incubated with the fura-2 am (Molecular Probes, #F-1221) 30 min prior to the experiment. Images were acquired with two-photon excitation (800 nm) at the rate of 1.5 images/ sec. […] Images were analyzed with Image J and ANALYZE® software (the Mayo Foundation, Rochester, MN). The D-enantiomer of the 1P3-BM ester was synthesized by Stuart Conway in the Cambridge University Chemical Laboratory by using a modification of the protocol of Tsien and co-workers (Li et al., 1997).
The primary response of glial cells to extracellular ATP is an increase in intracellular Ca^2+. To investigate whether the protective effect of ATP could be initiated by a Ca^2+ response, we loaded cultures of astrocytes with the Ca^2+ indicator dye Fura-2 AM (10 μM for 30 minutes). Fura-2 fluorescence was imaged with 2-photon microscopy using 800 nm excitation. At this wavelength, fluorescence is primarily due to the Ca^2+ free form of fura-2. […] When young astrocyte cultures were exposed to extracellular ATP (10 μM for 10 minutes), the peak intracellular Ca^2+ (−ΔF/F) was increased to 0.46±0.02 (n=25, pooled from 2 experiments). […] We tested whether the ATP-induced Ca^2+ response could be attributed to the metabotropic pathway, since IP3 mediated Ca^2+ release can stimulate mitochondrial energy production as well as sensitize mitochondria to apoptotic stimuli. Astrocytes cultured from old mice were pretreated with Xestospongin C (XeC, 25 μM for 30 minutes), which is a competitive inhibitor of IP3 binding to the IP3R. […] This is consistent with other reports showing that activation of the ionotropic P2X receptor activation also increases Ca^2+ in cultured astrocytes. To determine whether the metabotropic pathway was involved with the protective effect of extracellular ATP, we subsequently exposed the XeC/ATP treated astrocytes to oxidative stress. As described above, the perfusate contained t-BuOOH (100 μM) and TMRE (200 nM) to monitor ΔΨ. Under these experimental conditions, the average time until ΔΨ collapse was reduced to 5.48±0.22 (n=23, pooled from 2 experiments) in young astrocytes (FIG. 1C) and to 4.02±0.18 h (n=19, pooled from 2 experiments) in old astrocytes (FIG. 2C). […] We concluded that the protective effect of ATP on astrocytes was mediated by P2Y-receptors (P2Y-Rs).

[4] = tested on: astrocytes; assay: Mitochondrial membrane potential ΔΨ estimated as log(Fmito/Fcyto) with TMRE; assay type: cell-based, mouse
Description: as §1
We confirmed this by directly measuring the effect of ATP, ATP plus XeC and IP3-BM treatments on ΔΨ. Cultured cells were labeled with TMRE (200 nM) and imaged with a two-photon microscope as described above. ΔΨ was estimated as the log (Fmito/Fcyto) where Fmito is the peak fluorescent intensity observed in single mitochondria (Farkas et al., 1989; Lin et al., 2005). The mean values of individual mitochondria from a single cell were used for the mitochondrial potential estimate. Fcyto represents the lowest value of TMRE fluorescence observed within the boundaries of the same cell. […] FIG. 5E depicts a histogram plot showing average mitochondrial membrane potentials before and after treatment. The mean resting ΔΨs for untreated (Buffer), ATP-treated, ATP plus XeC-treated and IP3-BM-treated were 1.84+0.01 (n=78 mitochondria, pooled from 2 experiments), 1.84+0.01 (n=85 mitochondria), 1.85+0.01 (n=80 mitochondria) and 1.86+0.01 (n=48 mitochondria), respectively. Astrocyte cultures were then exposed to their respective treatments and the same fields of mitochondria were imaged 10 minutes later.

[5] = tested on: Rose Bengal (RB)-induced cerebral infarcts in mouse cortex; assay: RB-induced photothrombosis lesion size in parietal cortex of GFAP-GFP transgenic mice (confocal); assay type: in vivo; conditions: 24 and 48 hours post-ischemia; with versus without MRS2365
Excerpt: A precise clot in a blood vessel is induced using the photosensitive dye Rose Bengal (RB) in the mouse cortex. The blood vessels were simultaneously imaged by injecting the red fluorescent dye […] into the mouse circulation. The targeted blood vessel is illuminated by a 543-nm laser after tail vein injection of RB. RB is activated by the laser and interacts with molecular oxygen to form singlet oxygen, which is known to damage endothelial cells within the blood vessel, thereby triggering the natural clotting cascade and leading to formation of a clot. Pharmacological agents can be introduced at the time of photoactivation which also causes the breakdown of the blood-brain barrier.
The parietal cortex of GFAP-GFP transgenic mice was imaged using confocal microscopy and a 40×NA 0.8 or 10×NA 0.45 objective. The same region of the cortex was periodically imaged prior to RB injection, and 10, 20, 30, and 40 minutes post-RB injection. RB is impermeable to the BBB and is cleared quickly under physiological conditions.
The parietal cortex of GFAP-GFP transgenic mice was imaged using confocal microscopy and a 10×0.45 NA objective. […] The size of the lesion was calculated in Image J by tracing the region of the cortex that was void of GFP expressing astrocytes. […]

Question: For CC(=O)OCC[N+](C)(C)C [ACh], which cell death [1] is on record?
Answer: significantly higher

Question: Which results are given for CCCC(=O)OCOP(=O)(OCOC(=O)CCC)O[C@@H]1[C@H](O)[C@H](O)[C@@H](OP(=O)(OCOC(=O)CCC)OCOC(=O)CCC)[C@H](OP(=O)(OCOC(=O)CCC)OCOC(=O)CCC)[C@H]1O [IP3-BM, butyryloxymethyl ester of IP3]?
Answer: time until ΔΨ collapse ([2]; old astrocytes, IP3-BM 25 μM fifteen minutes): 6.32±0.35; time until ΔΨ collapse ([2]; young astrocytes, IP3-BM 25 μM fifteen minutes): 6.82±0.32; peak Ca2+ response ([3]; old astrocytes, IP3-BM 25 μM): 0.24±0.02; peak Ca2+ response ([3]; young astrocytes, IP3-BM 25 μM): 0.34±0.02; ΔΨ (log Fmito/Fcyto) after treatment ([4]; treating astrocytes for 10 minutes): 2.02±0.01

Question: CSc1nc(N)c2ncn([C@H]3[C@H](O)[C@H](O)[C@]4(COP(=O)(O)OP(=O)(O)O)C[C@H]34)c2n1 [MRS2365, N-methanocarba-2MeSADP] was tested. Which “size of the lesion (cortex void of GFP expressing astrocytes)” value [5] did it give?
Answer: greatly reduces the size of the lesion

Question: How did the “average time until ΔΨ collapse” value ([2]; old astrocytes) turn out when C1CCC[C@H]2CCCN3CC[C@@H](CCCCCC[C@@H]4CCCN5CC[C@@H](CC1)O[C@@H]45)O[C@@H]23 [XeC, Xestospongin C] was run?
Answer: 4.02 ± 0.18 h

Question: What about the “time until ΔΨ collapse” value ([2]; old astrocytes, XeC pretreatment + IP3-BM) of the same compound?
Answer: 4.48±0.07

Question: What about the “average time until ΔΨ collapse” value ([2]; young astrocytes) of the same compound?
Answer: 5.48 ± 0.22 h

Question: And the “time until ΔΨ collapse” value ([2]; young astrocytes, XeC pretreatment + IP3-BM)?
Answer: 4.73±0.05

Question: What about the “peak Ca2+ response” value ([3]; old astrocytes, XeC 25 μM 30 min pretreatment, then ATP 10 μM) of the same compound?
Answer: 0.28±0.04

Question: And the “Ca2+ response” value ([3]; old astrocytes, XeC 25 μM 30 min pretreatment)?
Answer: 0.13±0.01

Question: And the “Ca2+ response” value ([3]; young astrocytes, XeC 25 μM 30 min pretreatment)?
Answer: 0.11±0.01

Question: What about the “ΔΨ (log Fmito/Fcyto) after treatment” value ([4]; pretreated with XeC and then exposed to ATP) of the same compound?
Answer: 1.87±0.01
